Assay results taken from ChEMBL document CHEMBL4699616, “Novel deoxyvasicinone and tetrahydro-beta-carboline hybrids as inhibitors of acetylcholinesterase and amyloid beta aggregation” (Bioorg Med Chem Lett, 2020).
pIC50: −log10 of the molar value. The source made the active and inactive calls. The rule behind the calls is not given here.

How the values were obtained:
Acetylcholinesterase [1] = molecular target: T1, Acetylcholinesterase (Homo sapiens, UniProt P22303); assay: Inhibition of human erythrocytes AChE by Ellman's method; format: cell-based, Erythrocyte
[2] = molecular target: T2, Amyloid-beta precursor protein (Homo sapiens, UniProt P05067)
Description: Inhibition of amyloid beta (1 to 42) (unknown origin) self aggregation incubated for 48 hrs by thioflavin-T fluorescence method

Cholinesterase [3] = molecular target: T3, Cholinesterase (Homo sapiens, UniProt P06276)
Description: Inhibition of human serum BuChe by Ellman's method

Acetylcholinesterase [4] = molecular target: T1, Acetylcholinesterase; assay: Inhibition of human erythrocytes AChE at 1 uM by Ellman's method relative to control; format: cell-based; settings: Erythrocyte
[5] = molecular target: T2, Amyloid-beta precursor protein; assay: Inhibition of amyloid beta (1 to 42) (unknown origin) self aggregation at 20 uM incubated for 48 hrs by thioflavin-T fluorescence method relative to control
Cholinesterase [6] = molecular target: T3, Cholinesterase; assay: Inhibition of human serum BuChe at 1 uM by Ellman's method relative to control; format: cell-free
[7] = Cytotoxicity against human SH-SY5Y cells assessed as cell viability at 10 uM after 48 hrs by MTT assay relative to control; format: cell-based; settings: read-out: Activity
SH-SY5Y [8] = assay: Neuroprotective activity against amyloid beta (1 to 42) induced cell damage in human SH-SY5Y cells assessed as increase in cell viability at 1 to 10 uM measured after 48 hrs; format: functional, cell-based; settings: dose microM 1-10, time 48.0 hrs
SH-SY5Y [9] = assay: Cytotoxicity against human SH-SY5Y cells assessed as effect on cell viability at 0.1 uM after 48 hrs by MTT assay; format: cell-based
[10] = molecular target: T2, Amyloid-beta precursor protein; assay: Potency index, ratio of resveratrol IC50 to test compound IC50 for inhibition of amyloid beta (1 to 42) (unknown origin) self aggregation
SH-SY5Y [11] = assay: Cytotoxicity against human SH-SY5Y cells assessed as effect on cell viability at 0.1 to 1 uM after 48 hrs by MTT assay; format: cell-based; settings: dose 0.1-1 µM
SH-SY5Y [12] = assay: Neuroprotective activity against amyloid beta (1 to 42) induced cell damage in human SH-SY5Y cells assessed as increase in cell viability at 0.1 uM measured after 48 hrs; format: functional, cell-based
Acetylcholinesterase [13] = molecular target: T1, Acetylcholinesterase; assay: Inhibition of human erythrocytes AChE using acetylthiocholine iodide as substrate preincubated for 4.5 mins followed by substrate addition measured after 2.5 mins by Ellman's method; parameters: species or system Erythrocyte

T1 sequence (P22303 whole entry): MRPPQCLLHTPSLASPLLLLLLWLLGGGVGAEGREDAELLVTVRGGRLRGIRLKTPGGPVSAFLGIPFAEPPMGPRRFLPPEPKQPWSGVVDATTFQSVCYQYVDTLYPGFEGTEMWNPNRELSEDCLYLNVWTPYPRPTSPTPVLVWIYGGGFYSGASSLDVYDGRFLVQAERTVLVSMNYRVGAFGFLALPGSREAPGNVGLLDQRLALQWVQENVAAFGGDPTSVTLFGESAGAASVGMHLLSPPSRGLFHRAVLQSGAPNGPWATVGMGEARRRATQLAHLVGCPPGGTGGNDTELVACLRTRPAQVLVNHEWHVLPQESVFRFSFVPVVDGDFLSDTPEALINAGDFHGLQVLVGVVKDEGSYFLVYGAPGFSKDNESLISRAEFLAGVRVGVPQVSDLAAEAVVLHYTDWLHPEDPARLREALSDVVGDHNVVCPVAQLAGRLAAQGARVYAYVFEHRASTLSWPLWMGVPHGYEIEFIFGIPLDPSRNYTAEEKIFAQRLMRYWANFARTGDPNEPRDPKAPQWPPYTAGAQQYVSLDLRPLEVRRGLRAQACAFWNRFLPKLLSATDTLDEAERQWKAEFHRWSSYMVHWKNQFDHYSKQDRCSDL
T3 sequence (P06276 whole entry): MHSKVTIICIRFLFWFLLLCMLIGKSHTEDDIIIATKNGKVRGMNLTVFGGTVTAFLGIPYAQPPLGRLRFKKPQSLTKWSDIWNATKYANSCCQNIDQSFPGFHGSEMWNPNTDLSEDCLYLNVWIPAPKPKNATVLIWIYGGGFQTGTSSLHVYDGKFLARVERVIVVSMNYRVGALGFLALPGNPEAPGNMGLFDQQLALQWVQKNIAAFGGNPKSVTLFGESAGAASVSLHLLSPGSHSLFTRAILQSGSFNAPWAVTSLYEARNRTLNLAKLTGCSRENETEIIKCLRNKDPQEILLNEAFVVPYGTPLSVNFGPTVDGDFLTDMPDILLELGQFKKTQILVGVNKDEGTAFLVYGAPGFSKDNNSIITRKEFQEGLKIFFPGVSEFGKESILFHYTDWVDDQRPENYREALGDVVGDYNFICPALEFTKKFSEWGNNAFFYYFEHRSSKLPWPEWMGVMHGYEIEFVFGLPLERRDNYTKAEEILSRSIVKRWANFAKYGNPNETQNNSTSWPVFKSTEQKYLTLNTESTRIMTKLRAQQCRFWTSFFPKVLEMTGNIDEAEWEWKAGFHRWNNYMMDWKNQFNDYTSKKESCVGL
T2 sequence (P05067 whole entry): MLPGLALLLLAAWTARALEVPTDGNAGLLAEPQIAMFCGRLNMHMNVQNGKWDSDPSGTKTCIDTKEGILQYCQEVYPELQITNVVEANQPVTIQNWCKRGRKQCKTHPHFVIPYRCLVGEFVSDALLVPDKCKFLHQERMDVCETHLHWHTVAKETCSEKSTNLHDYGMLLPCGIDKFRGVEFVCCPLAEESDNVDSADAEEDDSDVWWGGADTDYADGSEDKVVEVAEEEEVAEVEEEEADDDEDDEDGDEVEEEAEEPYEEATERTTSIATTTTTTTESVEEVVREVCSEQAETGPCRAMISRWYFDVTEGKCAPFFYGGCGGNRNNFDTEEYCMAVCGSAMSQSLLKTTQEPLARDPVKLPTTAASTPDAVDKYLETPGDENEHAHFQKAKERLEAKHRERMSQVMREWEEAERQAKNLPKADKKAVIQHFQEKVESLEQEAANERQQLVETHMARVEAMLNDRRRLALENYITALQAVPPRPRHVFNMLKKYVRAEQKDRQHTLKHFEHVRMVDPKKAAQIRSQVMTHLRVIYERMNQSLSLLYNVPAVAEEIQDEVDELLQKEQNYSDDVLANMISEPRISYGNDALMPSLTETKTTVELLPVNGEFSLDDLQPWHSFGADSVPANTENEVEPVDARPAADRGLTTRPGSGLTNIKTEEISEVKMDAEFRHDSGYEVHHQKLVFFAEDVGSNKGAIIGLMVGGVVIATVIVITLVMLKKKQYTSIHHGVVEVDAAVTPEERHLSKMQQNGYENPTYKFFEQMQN

Row | SMILES | pIC50 (Acetylcholinesterase [1]) | pIC50 [2] | pIC50 (Cholinesterase [3]) | inhibition (Acetylcholinesterase [4]) [%] | inhibition [5] [%] | other results
1 | O=C(CCCCCN1CCC2c3ccccc3NC2C1)Nc1ccc(/C=C2\CCn3c2nc2ccccc2c3=O)cc1 (stereo not given) | 6.81 | 4.74 | 6.31 |  |  | 
2 | O=C(CCCN1CCC2c3ccccc3NC2C1)Nc1ccc(/C=C2\CCn3c2nc2ccccc2c3=O)cc1 (stereo not given) |  |  | 6.67 | 49.9 | 21.2 | 
3 | O=C(CCCCCN1CCC2c3ccccc3NC2C1)Oc1ccc(/C=C2\CCn3c2nc2ccccc2c3=O)cc1 (stereo not given) | 7.97 | 4.82 | 6.29 |  |  | 
4 | O=C(CCCCN1CCC2c3ccccc3NC2C1)Nc1ccc(/C=C2\CCn3c2nc2ccccc2c3=O)cc1 (stereo not given) | 7.01 |  | 7.48 |  | 27.9 | 
5 | O=C(O)C1NCCC2c3ccccc3NC12 (stereo not given) |  |  |  | 29.7 | 20.7 | inhibition (Cholinesterase [6]): 40.5%
6 | O=C(CCN1CCC2c3ccccc3NC2C1)Nc1ccc(/C=C2\CCn3c2nc2ccccc2c3=O)cc1 (stereo not given) | 8.01 |  | 6.14 |  | 31.6 | 
7 | O=C(CN1CCC2c3ccccc3NC2C1)Oc1ccc(/C=C2\CCn3c2nc2ccccc2c3=O)cc1 (stereo not given) | 6.66 |  | 6.62 |  | 38.8 | 
8 | O=C(CCCN1CCC2c3ccccc3NC2C1)Oc1ccc(/C=C2\CCn3c2nc2ccccc2c3=O)cc1 (stereo not given) | 7.78 |  | 7.36 |  | 41.5 | 
9 | O=C(CCN1CCC2c3ccccc3NC2C1)Oc1ccc(/C=C2\CCn3c2nc2ccccc2c3=O)cc1 (stereo not given) | 9.03 | 4.71 | 7.16 |  |  | viability at 48 h, 10 µM [7]: > 76%; Activity (SH-SY5Y [8]): Active; Activity (SH-SY5Y [9]): Non-Toxic
10 | O=C(CN1CCC2c3ccccc3NC2C1)Nc1ccc(/C=C2\CCn3c2nc2ccccc2c3=O)cc1 (stereo not given) |  |  | 6.22 | 21.6 | 37.5 | 
11 | O=C(CCCCN1CCC2c3ccccc3NC2C1)Oc1ccc(/C=C2\CCn3c2nc2ccccc2c3=O)cc1 (stereo not given) | 8.97 | 5.69 | 6.37 |  |  | viability at 48 h, 10 µM [7]: > 76%; Ratio IC50 [10]: 6; Activity (SH-SY5Y [11]): Non-Toxic; Activity (SH-SY5Y [8]): Active; Activity (SH-SY5Y [12]): Active
12 | O=c1c2ccccc2nc2n1CCC2 |  |  |  | 29.7 | 20.7 | inhibition (Cholinesterase [6]): 40.5%
13 | O=c1c2cc(OCCCN3CCCCC3)ccc2nc2n1CCC2 |  |  |  |  |  | pIC50 (Acetylcholinesterase [13]): 7.30
